We go through four cell lines from the supplement of paper PMC10307832.

Assay in all cases: relative viability (nuclei count vs DMSO), 5 days (fraction); higher = more cells survive
Compound in the experiment “Selumetinib + OSI-027”: Cn1cnc2c(F)c(Nc3ccc(Br)cc3Cl)c(C(=O)NOCCO)cc21 [Selumetinib] + COc1cccc2cc(-c3nc([C@H]4CC[C@H](C(=O)O)CC4)n4ncnc(N)c34)[nH]c12 [OSI-027] (partner 0.5 µM)
A digest of the protocol:
(§1)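 Relative viability equals treated-well nuclei counts divided by vehicle-well nuclei counts. Counts came from 4× images of lung cancer cell lines grown in 1536-well plates for 5 days after pin-tool dosing on the day after seeding. Dosing used one drug alone or a fixed anchor-drug dose plus five library-drug doses (not always all listed) in √10 steps, and values are medians of duplicate plates.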

Compound in the experiment “Venetoclax + Pemetrexed”: CC1(C)CCC(CN2CCN(c3ccc(C(=O)NS(=O)(=O)c4ccc(NCC5CCOCC5)c([N+](=O)[O-])c4)c(Oc4cnc5[nH]ccc5c4)c3)CC2)=C(c2ccc(Cl)cc2)C1 [Venetoclax] + Nc1nc2[nH]cc(CCc3ccc(C(=O)N[C@@H](CCC(=O)O)C(=O)O)cc3)c2c(=O)[nH]1 [Pemetrexed] (partner 0.2 µM)
In short, it runs like this:
as §1

Compound in the experiment “Venetoclax + Crizotinib”: CC1(C)CCC(CN2CCN(c3ccc(C(=O)NS(=O)(=O)c4ccc(NCC5CCOCC5)c([N+](=O)[O-])c4)c(Oc4cnc5[nH]ccc5c4)c3)CC2)=C(c2ccc(Cl)cc2)C1 [Venetoclax] + C[C@@H](Oc1cc(-c2cnn(C3CCNCC3)c2)cnc1N)c1c(Cl)ccc(F)c1Cl [Crizotinib] (partner 1 µM)
A digest of the protocol:
as §1

Compound in the experiment “Venetoclax + Luminespib”: CC1(C)CCC(CN2CCN(c3ccc(C(=O)NS(=O)(=O)c4ccc(NCC5CCOCC5)c([N+](=O)[O-])c4)c(Oc4cnc5[nH]ccc5c4)c3)CC2)=C(c2ccc(Cl)cc2)C1 [Venetoclax] + CCNC(=O)c1noc(-c2cc(C(C)C)c(O)cc2O)c1-c1ccc(CN2CCOCC2)cc1 [Luminespib] (partner 0.01 µM)
In short, it runs like this: as §1

For the cell line NCI-H1651, the relative viability with Selumetinib + OSI-027 (first compound 0.02 µM) amounted to 0.815; with Selumetinib + OSI-027 (first compound 0.06325 µM), 0.585; with Selumetinib + OSI-027 (first compound 0.2 µM) it was 0.627; in the experiment with Selumetinib + OSI-027 (first compound 0.6325 µM), 0.693; with Venetoclax + Pemetrexed (first compound 0.01 µM), 0.628; in the experiment with Venetoclax + Pemetrexed (first compound 0.03162 µM) it was 0.674. For the same cell line, the relative viability in the experiment with Venetoclax + Pemetrexed (first compound 0.1 µM) was found to be 0.561; with Venetoclax + Pemetrexed (first compound 0.3162 µM), 0.529; with Venetoclax + Pemetrexed (first compound 1 µM), 0.57; with Venetoclax + Crizotinib (first compound 0.01 µM), 0.866; with Venetoclax + Crizotinib (first compound 0.03162 µM) it was 0.856; with Venetoclax + Crizotinib (first compound 0.1 µM), 0.879. Further, the relative viability in the experiment with Venetoclax + Crizotinib (first compound 0.3162 µM) is 0.889; with Venetoclax + Crizotinib (first compound 1 µM), 0.825; with Venetoclax + Luminespib (first compound 0.01 µM), 0.872; in the experiment with Venetoclax + Luminespib (first compound 0.03162 µM), 0.882; with Venetoclax + Luminespib (first compound 0.1 µM) it was 0.817; in the experiment with Venetoclax + Luminespib (first compound 0.3162 µM), 0.8. Further, the relative viability in the experiment with Venetoclax + Luminespib (first compound 1 µM) turned out to be 0.79.
With EKVX, the relative viability with Selumetinib + OSI-027 (first compound 0.02 µM) came out at 0.654; with Selumetinib + OSI-027 (first compound 0.06325 µM), 0.645; with Selumetinib + OSI-027 (first compound 0.2 µM), 0.606; with Selumetinib + OSI-027 (first compound 0.6325 µM) it was 0.469; with Venetoclax + Pemetrexed (first compound 0.01 µM), 0.471; with Venetoclax + Pemetrexed (first compound 0.03162 µM), 0.402. In addition, the relative viability was determined as 0.351 in the experiment with Venetoclax + Pemetrexed (first compound 0.1 µM); 0.427 with Venetoclax + Pemetrexed (first compound 0.3162 µM); 0.35 with Venetoclax + Pemetrexed (first compound 1 µM); 0.834 in the experiment with Venetoclax + Crizotinib (first compound 0.01 µM); 0.985 with Venetoclax + Crizotinib (first compound 0.03162 µM); 0.897 in the experiment with Venetoclax + Crizotinib (first compound 0.1 µM). For the same cell line, the relative viability amounted to 0.895 in the experiment with Venetoclax + Crizotinib (first compound 0.3162 µM); 0.882 with Venetoclax + Crizotinib (first compound 1 µM); 0.87 with Venetoclax + Luminespib (first compound 0.01 µM); 0.89 in the experiment with Venetoclax + Luminespib (first compound 0.03162 µM); 0.923 in the experiment with Venetoclax + Luminespib (first compound 0.1 µM); 0.833 with Venetoclax + Luminespib (first compound 0.3162 µM). For the same cell line, the relative viability with Venetoclax + Luminespib (first compound 1 µM) stood at 0.884.
As to NCI-H1437, the relative viability with Selumetinib + OSI-027 (first compound 0.02 µM) came to 0.802; with Selumetinib + OSI-027 (first compound 0.06325 µM), 0.56; in the experiment with Selumetinib + OSI-027 (first compound 0.2 µM) it was 0.531; with Selumetinib + OSI-027 (first compound 0.6325 µM), 0.324; in the experiment with Venetoclax + Pemetrexed (first compound 0.01 µM) it was 0.309; in the experiment with Venetoclax + Pemetrexed (first compound 0.03162 µM), 0.316. The relative viability with Venetoclax + Pemetrexed (first compound 0.1 µM) worked out at 0.328; in the experiment with Venetoclax + Pemetrexed (first compound 0.3162 µM) it was 0.309; with Venetoclax + Pemetrexed (first compound 1 µM) it was 0.308; with Venetoclax + Crizotinib (first compound 0.01 µM), 0.851; with Venetoclax + Crizotinib (first compound 0.03162 µM), 0.941; with Venetoclax + Crizotinib (first compound 0.1 µM) it was 0.949. Besides, the relative viability came to 0.899 with Venetoclax + Crizotinib (first compound 0.3162 µM); 0.864 with Venetoclax + Crizotinib (first compound 1 µM); 1.07 with Venetoclax + Luminespib (first compound 0.01 µM); 1.19 with Venetoclax + Luminespib (first compound 0.03162 µM); 1.13 with Venetoclax + Luminespib (first compound 0.1 µM); 1.15 with Venetoclax + Luminespib (first compound 0.3162 µM). For the same cell line, the relative viability in the experiment with Venetoclax + Luminespib (first compound 1 µM) came out at 1.07.
Regarding NCI-H23, the relative viability with Selumetinib + OSI-027 (first compound 0.02 µM) is 0.605; with Selumetinib + OSI-027 (first compound 0.06325 µM), 0.561; with Selumetinib + OSI-027 (first compound 0.2 µM), 0.526; with Selumetinib + OSI-027 (first compound 0.6325 µM), 0.443; with Venetoclax + Pemetrexed (first compound 0.01 µM) it was 0.671; with Venetoclax + Pemetrexed (first compound 0.03162 µM) it was 0.747. Further, the relative viability in the experiment with Venetoclax + Pemetrexed (first compound 0.1 µM) is 0.597; with Venetoclax + Pemetrexed (first compound 0.3162 µM) it was 0.76; with Venetoclax + Pemetrexed (first compound 1 µM), 0.588; with Venetoclax + Crizotinib (first compound 0.01 µM), 0.488; in the experiment with Venetoclax + Crizotinib (first compound 0.03162 µM), 0.491; with Venetoclax + Crizotinib (first compound 0.1 µM), 0.353. Besides, the relative viability with Venetoclax + Crizotinib (first compound 0.3162 µM) was found to be 0.507; in the experiment with Venetoclax + Crizotinib (first compound 1 µM), 0.394; with Venetoclax + Luminespib (first compound 0.01 µM) it was 0.222; with Venetoclax + Luminespib (first compound 0.03162 µM) it was 0.226; in the experiment with Venetoclax + Luminespib (first compound 0.1 µM) it was 0.215; in the experiment with Venetoclax + Luminespib (first compound 0.3162 µM) it was 0.228. Also, in the experiment with Venetoclax + Luminespib (first compound 1 µM), the relative viability worked out at 0.22.
